# According to PubChem BioAssay (NCI):
#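 1) Cells in 96-well plates. 2) Compound, 48 h, 5 concentrations. 3) Linear interpolation between surrounding doses. 4) Unreached endpoint = highest concentration. GI50: concentration for 50% inhibition of growth. TGI denotes the concentration required for complete inhibition of growth.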
# How the values were obtained:
# Assay in all cases: DTP human tumour cell line panel, 48 h
# PC-3 prostate = system: PC-3 prostate
# A498 renal = system: A498 renal
# OVCAR-5 ovarian = system: OVCAR-5 ovarian
# OVCAR-3 ovarian = system: OVCAR-3 ovarian
# SF-268 CNS = system: SF-268 CNS
# HT29 colon = system: HT29 colon
# SF-295 CNS = system: SF-295 CNS
# OVCAR-4 ovarian = system: OVCAR-4 ovarian
SMILES,TGI (PC-3 prostate) [µM],TGI (A498 renal) [µM],TGI (OVCAR-5 ovarian) [µM],TGI (OVCAR-3 ovarian) [µM],TGI (SF-268 CNS) [µM],TGI (HT29 colon) [µM],TGI (SF-295 CNS) [µM],TGI (OVCAR-4 ovarian) [µM],GI50 (PC-3 prostate) [µM],GI50 (A498 renal) [µM],GI50 (OVCAR-5 ovarian) [µM],GI50 (OVCAR-3 ovarian) [µM],GI50 (SF-268 CNS) [µM],GI50 (HT29 colon) [µM],GI50 (SF-295 CNS) [µM],GI50 (OVCAR-4 ovarian) [µM]
O=S(=O)(c1ccccc1)c1cccc2c1NCCC2,> 100,> 100,> 100,> 100,> 100,> 100,> 100,> 100,–,–,–,–,–,–,–,–
CCCCCC1=CC(=O)C1(Cl)Cl,42.1,43.3,29.5,27,55.5,36.7,62.1,38.1,–,–,–,–,–,–,–,–
CC(=O)Oc1cccc2c1C(=O)CCCC2,> 100,> 100,> 100,> 100,> 100,> 100,> 100,> 100,–,–,–,–,–,–,–,–
COC(=O)C1=C(C(=O)OC)SC(=C2SCSC3=C2SC(C(=O)OC)=C(C(=O)OC)C32SC3=C(CCCC3)S2)S1,> 100,> 100,> 100,> 100,> 100,> 100,> 100,> 100,–,–,–,–,–,–,–,–
Cc1cccc(Cn2c3c(c4cc(O)ccc42)C(=O)c2ccccc2C3=O)c1,38.4,> 100,–,> 31.6,> 100,> 100,21.9,4.57,–,–,–,–,–,–,–,–
O=C(OCc1ccccc1)N1CCNCCN(C(=O)OCc2ccccc2)CCNCC1,> 100,> 100,> 100,> 100,–,42,64.3,> 100,–,–,–,–,–,–,–,–
C[C@]12CC[C@H](O)CC1=CC[C@@H]1[C@@H]2CC[C@]2(C)C(=N/N)/C(=N\O)C[C@@H]12,> 100,30.8,> 100,> 100,> 100,> 100,> 100,> 100,–,–,–,–,–,–,–,–
CCC(=O)NCC1CCCN2CCCCC12 (stereo unspecified),> 100,> 100,–,–,> 100,> 100,> 100,> 100,–,–,–,–,–,–,–,–
COc1ccc(CN2C(=O)/C(=C\c3cc(OC)c(OC)c(OC)c3)c3ccccc32)cc1,> 100,14.3,6.48,3.22,7.93,3.79,35.8,> 100,3.14,2.79,2.71,1.62,2.65,1.68,3.79,3.25
O=C(/C=C/c1ccc2c(c1)OCO2)c1ccc(O)cc1,29.4,38.3,35.1,28.9,> 100,29.8,32.6,38.8,–,–,–,–,–,–,–,–
CCOC(=O)c1c(CN2CCCC2)n(-c2ccccc2)c2cc(Br)c(O)cc12,48.5,30.6,36.5,30.3,49.7,18.2,32,31.6,–,–,–,–,–,–,–,–
O=C(c1ccccn1)C1(N2CCCCC2)CCCCC1,> 100,> 100,> 100,> 100,64.3,> 100,> 100,> 100,–,–,–,–,–,–,–,–
O=c1[nH]c(=S)[nH]c2c1C(c1ccc([N+](=O)[O-])cc1)c1c([nH]c(=S)[nH]c1=O)O2,> 100,> 100,> 100,> 100,–,> 100,> 100,> 100,–,–,–,–,–,–,–,–
c1ccc2c3[nH]c(c2c1)=Nc1ccc(cc1)-c1nc2cc(ccc2o1)N=c1[nH]c(c2ccccc12)=Nc1ccc2nc(oc2c1)-c1ccc(cc1)N=3,> 100,> 100,> 100,–,> 100,> 100,> 100,> 100,–,–,–,–,–,–,–,–
COc1ccc(-c2[nH]c3c4c(nc5c(c24)C(=O)CC(C)(C)C5)CC(C)(C)C3)cc1,92.6,> 100,> 100,> 100,> 100,> 100,> 100,> 100,–,–,–,–,–,–,–,–
N[C@@H](CCC(=O)NCP(=O)(O)O)C(=O)O,> 100,> 100,> 100,> 100,–,> 100,> 100,–,–,–,–,–,–,–,–,–
CC(=O)N(C(=O)CC(=O)N1N=C(c2ccccc2)C(N=Nc2ccccc2[N+](=O)[O-])C1=O)c1ccc(Cl)cc1 (stereo unspecified),> 10,> 10,> 10,> 10,> 10,> 10,> 10,> 10,–,–,–,–,–,–,–,–
Cc1cc(C)nc(NS(=O)(=O)c2ccc(NC(=O)c3ccc4nc5ccccc5c(Nc5ccc(S(N)(=O)=O)cc5)c4c3)cc2)n1,> 100,–,> 100,> 100,> 100,> 100,> 100,> 100,–,–,–,–,–,–,–,–
COc1ccc(N=NC(=Nc2ccccc2)c2ccc(N(CCC#N)CCC#N)cc2)cc1,> 100,> 100,> 100,55.2,> 100,> 100,> 100,> 100,–,–,–,–,–,–,–,–
Nc1nccc(-c2c[nH]c3cc(Br)ccc23)n1,> 100,–,49,> 100,> 100,44.7,> 100,> 100,–,–,–,–,–,–,–,–
Cc1ccc(NC(=O)c2ccc(OP(=O)(O)Nc3ccc(C)cc3)cc2)cc1,> 100,> 100,> 100,> 100,> 100,> 100,> 100,> 100,–,–,–,–,–,–,–,–
S=C(N/N=C(/c1ccccc1)c1ccccn1)N(Cc1ccccn1)Cc1ccccn1,1.78,–,3.37,1.71,4.84,2.09,1.82,1.73,–,–,–,–,–,–,–,–
NS(=O)(=O)c1nnc(NC(=O)Nc2ccc(Cl)c(Cl)c2)s1,–,43.9,75,> 100,67.5,37.9,> 100,> 100,–,–,–,–,–,–,–,–
O=C(NCc1ccccc1)c1n[nH][nH]c1=O,> 100,–,> 100,> 100,> 100,> 100,> 100,> 100,–,–,–,–,–,–,–,–
CC(=O)Nn1c(=S)[nH]c2ccccc21,> 100,> 100,> 100,–,> 100,> 100,> 100,> 100,–,–,–,–,–,–,–,–
Cc1oc2c(cc(O)c3cc(O)ccc32)c2cccc1-2,> 100,> 100,> 100,> 100,> 100,> 100,> 100,–,–,–,–,–,–,–,–,–
